Reference: the supplement of paper PMC10307832

Experiments:
Assay in all cases: relative viability (nuclei count vs DMSO), 5 days (fraction); higher = more cells survive
Omipalisib + Bortezomib = compound: COc1ncc(-c2ccc3nccc(-c4ccnnc4)c3c2)cc1NS(=O)(=O)c1ccc(F)cc1F [Omipalisib] + CC(C)C[C@H](NC(=O)[C@H](Cc1ccccc1)NC(=O)c1cnccn1)B(O)O [Bortezomib] (partner 0.002 µM)
Summary of the method: (§1)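 Medians of duplicate plates are given as relative viability. That measure is the nuclei count in treated wells divided by the count in vehicle wells. Counts were taken on 4× images of lung cancer cell lines in 1536-well plates, 5 days after pin-tool dosing the day after seeding with one drug alone or a fixed anchor-drug dose plus five library-drug doses (not always all listed) in √10 steps.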

Omipalisib + Foretinib = compound: COc1ncc(-c2ccc3nccc(-c4ccnnc4)c3c2)cc1NS(=O)(=O)c1ccc(F)cc1F [Omipalisib] + COc1cc2c(Oc3ccc(NC(=O)C4(C(=O)Nc5ccc(F)cc5)CC4)cc3F)ccnc2cc1OCCCN1CCOCC1 [Foretinib] (partner 0.25 µM)
Summary of the method: as §1

Omipalisib + Lapatinib = compound: COc1ncc(-c2ccc3nccc(-c4ccnnc4)c3c2)cc1NS(=O)(=O)c1ccc(F)cc1F [Omipalisib] + CS(=O)(=O)CCNCc1ccc(-c2ccc3ncnc(Nc4ccc(OCc5cccc(F)c5)c(Cl)c4)c3c2)o1 [Lapatinib] (partner 2 µM)
Summary of the method: as §1

Omipalisib + Dasatinib = compound: COc1ncc(-c2ccc3nccc(-c4ccnnc4)c3c2)cc1NS(=O)(=O)c1ccc(F)cc1F [Omipalisib] + Cc1nc(Nc2ncc(C(=O)Nc3c(C)cccc3Cl)s2)cc(N2CCN(CCO)CC2)n1 [Dasatinib] (partner 0.075 µM)
Summary of the method: as §1

Omipalisib + Pictilisib = compound: COc1ncc(-c2ccc3nccc(-c4ccnnc4)c3c2)cc1NS(=O)(=O)c1ccc(F)cc1F [Omipalisib] + CS(=O)(=O)N1CCN(Cc2cc3nc(-c4cccc5[nH]ncc45)nc(N4CCOCC4)c3s2)CC1 [Pictilisib] (partner 1 µM)
Summary of the method: as §1

Omipalisib + OSI-027 = compound: COc1ncc(-c2ccc3nccc(-c4ccnnc4)c3c2)cc1NS(=O)(=O)c1ccc(F)cc1F [Omipalisib] + COc1cccc2cc(-c3nc([C@H]4CC[C@H](C(=O)O)CC4)n4ncnc(N)c34)[nH]c12 [OSI-027] (partner 0.5 µM)
Summary of the method: as §1

Cell Line	relative viability (Omipalisib + Bortezomib; first compound 0.0003 µM)	relative viability (Omipalisib + Bortezomib; first compound 0.003 µM)	relative viability (Omipalisib + Bortezomib; first compound 0.03 µM)	relative viability (Omipalisib + Foretinib; first compound 0.0003 µM)	relative viability (Omipalisib + Foretinib; first compound 0.003 µM)	relative viability (Omipalisib + Foretinib; first compound 0.03 µM)	relative viability (Omipalisib + Lapatinib; first compound 0.0003 µM)	relative viability (Omipalisib + Lapatinib; first compound 0.003 µM)	relative viability (Omipalisib + Lapatinib; first compound 0.03 µM)	relative viability (Omipalisib + Dasatinib; first compound 0.0003 µM)	relative viability (Omipalisib + Dasatinib; first compound 0.003 µM)	relative viability (Omipalisib + Dasatinib; first compound 0.03 µM)	relative viability (Omipalisib + Pictilisib; first compound 0.0003 µM)	relative viability (Omipalisib + Pictilisib; first compound 0.003 µM)	relative viability (Omipalisib + Pictilisib; first compound 0.03 µM)	relative viability (Omipalisib + OSI-027; first compound 0.0003 µM)	relative viability (Omipalisib + OSI-027; first compound 0.003 µM)	relative viability (Omipalisib + OSI-027; first compound 0.03 µM)
COR-L23	1	0.934	0.63	0.974	1.01	0.719	1.01	0.893	0.517	0.487	0.323	0.239	0.723	0.709	0.449	0.786	0.59	0.483
LXF-289	1.03	0.99	0.808	0.977	0.912	0.626	0.894	0.956	0.785	0.235	0.119	0.0562	0.772	0.684	0.671	0.764	0.493	0.357
NCI-H1734	0.937	0.544	0.276	0.754	0.446	0.268	0.943	0.699	0.551	0.396	0.243	0.194	0.461	0.307	0.389	0.561	0.275	0.239
NCI-H2009	0.979	0.986	0.584	1.15	1.07	0.922	0.997	0.943	0.581	0.272	0.215	0.157	0.752	0.797	0.52	0.673	0.444	0.312
NCI-H838	0.743	0.652	0.234	0.953	0.703	0.375	0.942	0.683	0.31	0.263	0.223	0.23	0.422	0.393	0.313	0.335	0.345	0.181
NCI-H2405	0.895	0.909	0.578	1.01	0.756	0.39	0.949	0.6	0.303	0.213	0.204	0.166	0.433	0.389	0.355	0.661	0.359	0.296
NCI-H1355	1.16	0.925	0.375	0.764	0.643	0.416	0.942	0.665	0.54	0.596	0.402	0.307	0.499	0.295	0.297	0.377	0.238	0.237
NCI-H1993	0.894	0.699	0.542	0.805	0.633	0.594	0.812	0.809	0.588	0.498	0.545	0.486	0.837	0.861	0.912	0.48	0.597	0.621
NCI-H1755	0.924	0.886	0.708	0.911	0.821	0.51	1.04	0.924	0.783	0.445	0.271	0.236	0.426	0.353	0.344	0.707	0.501	0.448
NCI-H650	0.749	0.501	0.293	1.04	0.877	0.613	0.816	0.759	0.499	0.469	0.317	0.266	0.867	0.762	0.631	0.447	0.384	0.315
NCI-H2347	1.02	1.06	0.663	0.905	0.699	0.454	0.855	0.902	0.81	0.286	0.253	0.26	0.682	0.612	0.449	0.345	0.262	0.959
SK-LU-1	1.1	0.724	0.511	0.869	0.662	0.479	0.89	0.724	0.493	0.175	0.121	0.109	0.685	0.504	0.511	0.373	0.207	0.183
NCI-H322M	1.28	1.01	1.03	0.888	0.684	0.566	0.53	0.553	0.415	0.234	0.245	0.257	0.467	0.577	0.313	0.562	0.481	0.412
NCI-H2023	0.906	0.487	0.301	0.908	0.433	0.233	0.684	0.374	0.179	0.446	0.213	0.114	0.204	0.181	0.179	0.344	0.169	0.0988
LCLC-97TM1	0.589	0.477	0.146	0.934	0.468	0.189	0.976	0.323	0.223	0.883	0.74	0.472	0.181	0.15	0.166	0.589	0.251	0.2
SW 1573	0.885	0.818	0.411	0.693	0.595	0.401	0.905	0.786	0.638	0.165	0.331	0.101	0.495	0.388	0.341	0.397	0.371	0.225
HCC-15	0.988	0.848	0.813	0.944	0.814	0.721	0.81	0.779	0.795	0.552	0.349	0.42	0.698	0.599	0.702	0.628	0.357	0.413
